# Values of other authors as cited in patent US20040082013A1, “Methods for screening for substances which inhibit fp prostanoid receptor interaction with a compound having pgf2alpha activity and methods of treating cancer” (priority 2003, published 2004).
# Tests used:
# [1] = system: eyelashes and adjacent hair; conditions: some patients receiving latanoprost for glaucoma; treated eye, not untreated eye
# skin carcinogenesis = conditions: animal models of skin carcinogenesis
Compound,hair growth side effect [1],effect on anti-tumor promoting activity of indomethacin (skin carcinogenesis),effect on tumor promoting activity of phorbol esters (skin carcinogenesis)
CC(C)OC(=O)CCC/C=C\C[C@@H]1[C@@H](CC[C@@H](O)CCc2ccccc2)[C@H](O)C[C@@H]1O [latanoprost],hypertrichosis of the eyelashes and adjacent hair in the treated eye,–,–
prostaglandin F2α [PGF2α],–,reversed the anti-tumor promoting activity of indomethacin,increased the tumor promoting activity of phorbol esters
